Measured values reported in patent US12133916B2, “Process for producing an andrographolide carrier system” (priority 2021, dated 2024).

Assay: Water solubility / water-dispersability comparison (FIG. 1)
Format: physicochemical
Conditions: dispersed in water, visual

Which “water-dispersability (FIG. 1)” value does the source give for `C=C1CC[C@@H]2[C@](C)(CO)[C@H](O)CC[C@@]2(C)[C@@H]1C/C=C1/C(=O)OC[C@H]1O` [known 99% andrographolide, Andrographolide] here?
The value was “insoluble in water”.
